Data taken from US20230027066A1 (Urovant Sciences GmbH, priority 2019, published 2023).

Experiments:
[1] = system: men and women with overactive bladder; assay: Phase 3 study (75 mg), patient-reported outcomes (OAB-q LF, PGI); assay type: in vivo, human; parameters: OAB-q sleep score, improvement greater than placebo / HRQL Total Score, improvement greater than placebo / OAB-q HRQL Total Score, Active - Placebo LS Means Difference: scale not given here
Description: Patients completed paper questionnaires at the site at the start of each required study visit to assess patient-perceived symptom relief, symptom bother, and health-related quality of life at the study visits. […] These included the following questionnaires:
1. Global Impression Items include Patient Global Impression of Severity (PGI-Severity), Patient Global Impression of Control (PGI-Control), Patient Global Impression of Frequency (PGI-Frequency), Patient Global Impression of Leakage (PGI-Leakage), and Patient Global Impression of Change (PGI-Change).
2. Overactive Bladder Questionnaire (OAB-q long form [OAB-q LF], 1-week recall) is a 33-item patient-administered, disease-specific questionnaire that includes a Health-Related QoL (HRQL) scale (25 items) and a Symptom Bother Scale (8 items). The HRQL is a multidomain concept that represents the patient's general perception of the effect of illness and treatment on physical, psychological, and social aspects of life. […] In the present study, the HRQL scale is divided into 4 subscales: Coping, Concern/Worry, Sleep, and Social Interaction. The Coping subscale (also referred to as the coping domain score) was a secondary endpoint, with items scored from 1 (none of the time) to 6 (all the time), with higher scores indicating better QoL. The HRQL total score is calculated by summating the individual HRQL subscale scores. The Symptom Bother Scale items are scored from 1 (not at all) to 6 (a very great deal), with higher Symptom Bother scores indicating greater symptom severity. The instrument was developed and validated in both continent and incontinent OAB patients, including both men and women.
With the exception of the symptom bother score, a responder was defined as having a change from baseline ≥10. For symptom bother score, a responder was defined as having a change from baseline […]. A higher proportion of patients represented a favorable response.

[2] = system: men and women with overactive bladder; assay: 40-week extension study (52 weeks), efficacy; assay type: in vivo, human; details: for UUI Episodes 75% Responders at Week 52 / UUI Episodes 100% Responders at Week 52 / Urgency Episodes 50% Responders at Week 52: multiple imputation
Description: All CFB calculations used the parent study Baseline value.

[3] = 50% Total Incontinence Responders, Week 12
[4] = Week 12, responder = change from baseline ≥10
[5] = vibegron 75 mg/day, 12-week treatment
[6] = 40-Week treatment group, Full Analysis Set Extension
[7] = 52-Week treatment group, Full Analysis Set Extension

O=C(Nc1ccc(C[C@@H]2CC[C@H]([C@H](O)c3ccccc3)N2)cc1)[C@@H]1CCc2nccc(=O)n21 [Vibegron, (6S)-N-[4-[[(2S,5R)−5-[(R)-hydroxy(phenyl)methyl]pyrrolidin−2-yl]methyl]phenyl]−4-oxo−7,8-dihydro−6H-pyrrolo[1,2-a]pyrimidine−6-carboxamide]
OAB-q Coping Subscore, Change from baseline at week 12, LS Means (SE) [1, 3]: 20.3 (1.35)
OAB-q Coping Subscore, Mean [1, 3]: 83.08 (18.924)
OAB-q Symptom Bother Subscore, Change from baseline at week 12, LS Means [1, 3]: −25.5
OAB-q Symptom Bother Subscore, Mean [1, 3]: 21.18
Change from Baseline in PGI-Control, LS Mean ([1]; 75% UUI Responders, Week 4): −0.8 (0.06)
PGI-Control, Mean (SD) ([1]; 75% UUI Responders, Week 4): 2.42 (0.887)
Change from Baseline in PGI-Control, LS Mean ([1]; 75% UUI Responders, Week 8): −1.0 (0.06)
PGI-Control, Mean (SD) ([1]; 75% UUI Responders, Week 8): 2.25 (0.863)
Change from Baseline in PGI-Control, LS Mean ([1]; 75% UUI Responders, Week 12): −1.2 (0.06)
OAB-q Coping Subscore, Change from baseline at week 12, LS Means (SE) ([1]; 75% UUI Responders, Week 12): 19.7 (1.48)
OAB-q Coping Subscore, Mean (SD) ([1]; 75% UUI Responders, Week 12): 83.99 (19.232)
OAB-q Symptom Bother Subscore, Change from Baseline at Week 12, LS Means (SE) ([1]; 75% UUI Responders, Week 12): −25.8 (1.38)
OAB-q Symptom Bother Subscore, Mean (SD) ([1]; 75% UUI Responders, Week 12): 20.13 (15.862)
PGI-Control, Mean (SD) ([1]; 75% UUI Responders, Week 12): 2.02 (0.784)
OAB-q Concern Subscore, Week 12 Mean (SD) ([1]; Week 12): 80.58 (21.867)
OAB-q Concern responders, Difference from Placebo ([1]; Week 12): 5.9
OAB-q Concern, Active - Placebo LS Means Difference ([1]; Week 12): 5.0
OAB-q Concern, change from baseline LS Means (SE) ([1]; Week 12): 15.3 (1.24)
OAB-q Coping Score, Active - Placebo LS Means Difference ([1]; Week 12): 3.6
OAB-q Coping Score, change from baseline LS Means (SE) ([1]; Week 12): 16.5 (1.31)
OAB-q Coping Sub score, Week 12 Mean (SD) ([1]; Week 12): 77.26 (23.242)
OAB-q Coping responders, Difference from Placebo ([1]; Week 12): 7.5
OAB-q HRQL Total Score, Active - Placebo LS Means Difference ([1]; Week 12): 3.8
OAB-q HRQL Total Score, change from baseline LS Means (SE) ([1]; Week 12): 14.6 (1.12)
OAB-q Sleep Subscore, Week 12 Mean (SD) ([1]; Week 12): 75.59 (23.883)
OAB-q Sleep responders, Difference from Placebo ([1]; Week 12): 2.1
OAB-q Sleep, Active - Placebo LS Means Difference ([1]; Week 12): 4.5
OAB-q Sleep, change from baseline LS Means (SE) ([1]; Week 12): 14.9 (1.34)
OAB-q Social Interaction Subscore, Week 12 Mean (SD) ([1]; Week 12): 88.57 (18.011)
OAB-q Social Interaction responders, Difference from Placebo ([1]; Week 12): 5.4
OAB-q Social Interaction, Active - Placebo LS Means Difference ([1]; Week 12): 1.5
OAB-q Social Interaction, change from baseline LS Means (SE) ([1]; Week 12): 10.2 (0.97)
OAB-q Symptom Bother Subscore, Week 12 Mean (SD) ([1]; Week 12): 27.78 (19.816)
OAB-q Symptom Bother responders, Difference from Placebo ([1]; Week 12): 11.8
OAB-q Symptom Bother, Active - Placebo LS Means Difference ([1]; Week 12): −6.9
OAB-q Symptom Bother, change from baseline LS Means (SE) ([1]; Week 12): −19.6 (1.24)
OAB-q Total HRQL Score, Week 12 Mean (SD) ([1]; Week 12): 80.12 (20.175)
OAB-q Total HRQL responders, Difference from Placebo ([1]; Week 12): 5.5
OAB-q Symptom Bother responders, % ([1]; Week 12, responder = change from baseline ≤−10): (70.1) %
OAB-q Concern responders, % [1, 4]: (55.7) %
OAB-q Coping responders, % [1, 4]: (61.9) %
OAB-q Sleep responders, % [1, 4]: (53.9) %
OAB-q Total HRQL responders, % [1, 4]: (54.1) %
HRQL Total Score, improvement greater than placebo [1, 5]: 3.8
OAB-q coping domain score, improvement greater than placebo [1, 5]: 3.6
OAB-q sleep score, improvement greater than placebo [1, 5]: 4.5
OAB-q symptom bother score, decrease more than placebo [1, 5]: 6.9
Micturitions, Change from Baseline at Week 52, Mean ([2]; 40-Week arm): −3.1
UUI Episodes, Change from Baseline at Week 52, Mean ([2]; 40-Week arm): −2.3
UUI Episodes, Week 52 Mean ([2]; 40-Week arm): 1.2
Urgency Episodes, Change from Baseline at Week 52, Mean ([2]; 40-Week arm): −4.0
Urgency Episodes, Week 52 Mean ([2]; 40-Week arm): 4.7
Micturitions, Week 52 Mean ([2]; 40-Week arm, Full Analysis Set Extension): 9.3
Total urinary incontinence episodes, Change from Baseline Mean at Week 52 [2, 6]: −2.5
Total urinary incontinence episodes, Week 52 Mean [2, 6]: 1.8
UUI Episodes 75% Responders at Week 52 ([2]; 40-Week treatment group): 58.7%
UUI Episodes 100% Responders at Week 52 ([2]; 40-Week treatment group): 42.1%
Urgency Episodes 50% Responders at Week 52 ([2]; 40-Week treatment group): 51.4%
Micturitions, Change from Baseline at Week 52, Mean ([2]; 52-Week arm): −2.5
UUI Episodes, Change from Baseline at Week 52, Mean ([2]; 52-Week arm): −2.2
UUI Episodes, Week 52 Mean ([2]; 52-Week arm): 1.0
Urgency Episodes, Change from Baseline at Week 52, Mean ([2]; 52-Week arm): −3.4
Urgency Episodes, Week 52 Mean ([2]; 52-Week arm): 4.5
Micturitions, Week 52 Mean ([2]; 52-Week arm, Full Analysis Set Extension): 8.7
Total urinary incontinence episodes, Change from Baseline Mean at Week 52 [2, 7]: −2.5
Total urinary incontinence episodes, Week 52 Mean [2, 7]: 1.2
UUI Episodes 75% Responders at Week 52 ([2]; 52-Week treatment group): 61.0%
UUI Episodes 100% Responders at Week 52 ([2]; 52-Week treatment group): 40.8%
Urgency Episodes 50% Responders at Week 52 ([2]; 52-Week treatment group): 49.4%
UUI Episodes, Change from Baseline LS Mean (SE) at Week 52 ([2]; 52-Weeks arm, Full Analysis Set Extension for Incontinence): −2.2 (0.15)
Micturitions, Change from Baseline LS Mean (SE) at Week 52 ([2]; 52-Weeks arm, mixed model for repeated measures): −2.4 (0.24)
Urgency episodes, Change from Baseline LS Mean (SE) at Week 52 ([2]; 52-Weeks treatment, Full Analysis Set Extension): −3.4 (0.34)
Total urinary incontinence episodes, Change from Baseline LS Mean (SE) at Week 52 ([2]; 52-Weeks treatment, Full Analysis Set Extension for Incontinence): −2.5 (0.17)
% Responders, 50% Reduction in Total Inc at Week 52 ([2]; 52-week treatment, Table 97): 71%
% Responders, 50% Reduction in UE at Week 52 ([2]; 52-week treatment, Table 97): 49%
% Responders, 75% Reduction in UUI at Week 52 ([2]; 52-week treatment, Table 97): 61%
% Responders, 100% Reduction in UUI at Week 52 ([2]; 52-week treatment, Table 97): 41%
Micturitions, Least Squares Means CFB at Week 52 ([2]; 52-week treatment, Table 97): −2.4
Total Incontinence Episodes, Least Squares Means CFB at Week 52 ([2]; 52-week treatment, Table 97): −2.5
UUI Episodes, Least Squares Means CFB at Week 52 ([2]; 52-week treatment, Table 97): −2.2
Urgency Episodes (UE), Least Squares Means CFB at Week 52 ([2]; 52-week treatment, Table 97): −3.4
Volume Voided, mean change from baseline at Week 52 ([2]; 52-week treatment, Table 97): 26 mL
